Reference: PubChem BioAssay AID1963860 (Molecular Pharmacology Branch, DTP, NCI, 2024)

Tested on: CN0375-F725-PDC KRAS spheroid viability
Test: Anticancer human tumor CN0375-F725-PDC patient-derived colon carcinoma cell line growth inhibition [KRAS2]
Conditions: spheroids with HUVEC and MSC; for IC50: curve of first compound; for viability, T/C: stronger effect = lower value
In short: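 KRAS-mutant tumor cells were grown as spheroids with HUVEC endothelial cells and human MSCs as stroma. Targeted agents were tested alone and with KRAS pathway inhibitors. Doses started at or near clinical Cmax, or 10 microM, descending half-log.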

[1] = second compound 0.1 µM, first compound 0.0316 µM
[2] = second compound 0.1 µM, first compound 0.1 µM
[3] = second compound 0.1 µM, first compound 0.316 µM
[4] = second compound 0.1 µM, first compound 1 µM
[5] = second compound 0.316 µM, first compound 0.0316 µM
[6] = second compound 0.316 µM, first compound 0.1 µM
[7] = second compound 0.316 µM, first compound 0.316 µM
[8] = second compound 0.316 µM, first compound 1 µM
[9] = second compound 1 µM, first compound 0.0316 µM
[10] = second compound 1 µM, first compound 0.1 µM
[11] = second compound 1 µM, first compound 0.316 µM
[12] = second compound 1 µM, first compound 1 µM
[13] = second compound 3.16 µM, first compound 0.0316 µM
[14] = second compound 3.16 µM, first compound 0.1 µM
[15] = second compound 3.16 µM, first compound 0.316 µM
[16] = second compound 3.16 µM, first compound 1 µM
[17] = second compound 10 µM, first compound 0.0316 µM
[18] = second compound 10 µM, first compound 0.1 µM
[19] = second compound 10 µM, first compound 0.316 µM
[20] = second compound 10 µM, first compound 1 µM
[21] = second compound 0.1 µM, first compound 0.00316 µM
[22] = second compound 0.1 µM, first compound 0.01 µM
[23] = second compound 0.316 µM, first compound 0.00316 µM
[24] = second compound 0.316 µM, first compound 0.01 µM
[25] = second compound 1 µM, first compound 0.00316 µM
[26] = second compound 1 µM, first compound 0.01 µM
[27] = second compound 3.16 µM, first compound 0.00316 µM
[28] = second compound 3.16 µM, first compound 0.01 µM
[29] = second compound 10 µM, first compound 0.00316 µM
[30] = second compound 10 µM, first compound 0.01 µM
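Further: spheroids exposed to agents for 7 days.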

| Structure (SMILES) | IC50 (second compound 0.1 µM) [µM] | IC50 (second compound 0.316 µM) [µM] | IC50 (second compound 1 µM) [µM] | IC50 (second compound 3.16 µM) [µM] | IC50 (second compound 10 µM) [µM] | viability, T/C [1] [%] | viability, T/C [2] [%] | viability, T/C [3] [%] | viability, T/C [4] [%] | viability, T/C [5] [%] | viability, T/C [6] [%] | viability, T/C [7] [%] | viability, T/C [8] [%] | viability, T/C [9] [%] | viability, T/C [10] [%] | viability, T/C [11] [%] | viability, T/C [13] [%] | viability, T/C [14] [%] | viability, T/C [17] [%] | viability, T/C [18] [%] | further results |
| --- | --- | --- | --- | --- | --- | --- | --- | --- | --- | --- | --- | --- | --- | --- | --- | --- | --- | --- | --- | --- | --- |
| CC(C)NCC(C(=O)N1CCN(c2ncnc3c2C(C)CC3O)CC1)c1ccc(Cl)cc1 (stereo not given) + COc1cc2nc(C)nc(NC(C)c3cc(N)cc(C(F)(F)F)c3)c2cc1OC1CCOC1 | > 10 | > 10 | > 10 | > 10 | < 0.0316 | 100 | 100 | 87.7 | 88.3 | 95.5 | 97.3 | 88.5 | 85.1 | 93.6 | 93.3 | 85.2 | 88.5 | 81.7 | 16.1 | 18.6 | viability, T/C (second compound 0.1 µM, first compound 3.16 µM): 84.8%; viability, T/C (second compound 0.1 µM, first compound 10 µM): 74.4%; viability, T/C (second compound 0.316 µM, first compound 3.16 µM): 81.3%; viability, T/C (second compound 0.316 µM, first compound 10 µM): 71.1%; viability, T/C [12]: 80.7%; viability, T/C (second compound 1 µM, first compound 3.16 µM): 74.4%; viability, T/C (second compound 1 µM, first compound 10 µM): 65.5%; viability, T/C [15]: 76.9%; viability, T/C [16]: 66.9%; viability, T/C (second compound 3.16 µM, first compound 3.16 µM): 62.4%; viability, T/C (second compound 3.16 µM, first compound 10 µM): 50.5%; viability, T/C [19]: 14.8%; viability, T/C [20]: 10.8%; viability, T/C (second compound 10 µM, first compound 3.16 µM): 8.1%; viability, T/C (second compound 10 µM, first compound 10 µM): 5.67% |
| CCN1CCN(Cc2ccc(Nc3ncc(F)c(-c4cc(F)c5nc(C)n(C(C)C)c5c4)n3)nc2)CC1 + COc1cc2nc(C)nc(NC(C)c3cc(N)cc(C(F)(F)F)c3)c2cc1OC1CCOC1 | > 1 | > 1 | > 1 | > 1 | < 0.00316 | 81.9 | 88.1 | 90.7 | 94.7 | 79.2 | 82 | 92.8 | 78 | 79.3 | 81.6 | 86.5 | 71.3 | 70.7 | 13.4 | 15.4 | viability, T/C [21]: 96.4%; viability, T/C [22]: 89.7%; viability, T/C [23]: 93%; viability, T/C [24]: 91.2%; viability, T/C [25]: 91.1%; viability, T/C [26]: 85.3%; viability, T/C [12]: 83%; viability, T/C [27]: 84.3%; viability, T/C [28]: 79.9%; viability, T/C [15]: 71.7%; viability, T/C [16]: 49.5%; viability, T/C [29]: 14.6%; viability, T/C [30]: 14.5%; viability, T/C [19]: 6.49%; viability, T/C [20]: 0.9% |
| Cn1ncnc1[C@H]1c2n[nH]c(=O)c3cc(F)cc(c23)N[C@@H]1c1ccc(F)cc1 + COc1cc2nc(C)nc(NC(C)c3cc(N)cc(C(F)(F)F)c3)c2cc1OC1CCOC1 | > 0.1 | > 0.1 | > 0.1 | > 0.1 | < 0.000316 | 98 | 94.9 |  |  | 96.4 | 93.1 |  |  | 88.8 | 86.4 |  | 79.4 | 76.8 | 5.32 | 10.4 | viability, T/C (second compound 0.1 µM, first compound 0.000316 µM): 103%; viability, T/C (second compound 0.1 µM, first compound 0.001 µM): 98.8%; viability, T/C [21]: 96.7%; viability, T/C [22]: 97.9%; viability, T/C (second compound 0.316 µM, first compound 0.000316 µM): 97.2%; viability, T/C (second compound 0.316 µM, first compound 0.001 µM): 104%; viability, T/C [23]: 94.2%; viability, T/C [24]: 92.5%; viability, T/C (second compound 1 µM, first compound 0.000316 µM): 97.7%; viability, T/C (second compound 1 µM, first compound 0.001 µM): 105%; viability, T/C [25]: 86.9%; viability, T/C [26]: 86.7%; viability, T/C (second compound 3.16 µM, first compound 0.000316 µM): 88.6%; viability, T/C (second compound 3.16 µM, first compound 0.001 µM): 94%; viability, T/C [27]: 84.1%; viability, T/C [28]: 76.8%; viability, T/C (second compound 10 µM, first compound 0.000316 µM): 11.7%; viability, T/C (second compound 10 µM, first compound 0.001 µM): 14%; viability, T/C [29]: 6.8%; viability, T/C [30]: 13.3% |
